Legend:
Type in all cases: in vivo
[1] = system: mice; assay: Elevated plus maze test (EPM)
Protocol: The tests were performed on male white mice of the Albino Swiss strain, whose weight was between 24 and 30 g in Experimental Medicine Center, Medical University of Lublin, Poland. The animals were housed (four/five per cage). Before conducting the experimental tests, the animals were subjected to an adaptation that lasted seven days. This consisted of keeping them in a room with relatively constant conditions: a temperature of 22 ± 1 °C, a humidity of 55 ± 5% and lighting that mimicked the natural day and night rhythm (12 h/12 h). Constant access to food and water was provided. Standard feed—LSM Motycz pelleted feed—and tap water were used. Mice were randomly allocated to study groups. Each group was represented by 8–10 animals, depending on the research schedule. The experiments were performed according to the procedures set out in the regulations for animal experiments: National Institute of Health Guidelines for the Care and Use of Laboratory Animals (8th edition) and to the European Community Council Directive for the Care and Use of Laboratory Animals of 22 September 2010 (2010/63/EU). The study was approved by the Local Ethical Committee in Lublin (number of ethical approvals: 27/2023). Tested compounds: FG‐1, FG‐4, FG‐5, FG‐6, FG‐7, FG‐8, and FG‐18 were finely ground in mortars with the addition of the emulsifier Tween‐80. A suspension was obtained, which was then diluted with aqueous solution of 0.5% methylcellulose (tylose). The mixture was then administered intraperitoneally (i.p.) to the animals 60 min before the start of the experiments. Animals in the control groups received a 0.5% tylose solution. All substances were administered via the same route of administration in appropriate dose and volume of 0.1 mL per 10 g of animal body weight. Prior to the administration of the drug, the animals were weighed, during the interval between tests, they were provided with food, water, and constant living conditions. The EPM test is performed using an apparatus developed by Lister;^[ [44] ^] it consists of two open arms (30 × 5 cm) and two enclosed arms (30 × 5 × 15 cm) and a central platform (5 × 5 cm) it is placed at a height of 45 cm from the floor. The labyrinth was made of Plexiglas. The experiments were conducted in a darkened and quiet room. The central square of the maze was evenly illuminated with a dull red light. In the test, the mouse is observed for 5 min, and the number of entries into the open and closed arms and the time spent in them are recorded. The person carrying out the experiment remains constantly in the same place. Entering an individual arm is considered when the mouse has placed all four limbs outside the central square. The experiment measures: 1) the time spent by the mouse into the open arms of the maze, expressed as a percentage of the total exploration time, 2) the number of entries into the open arms of the maze, expressed as a percentage of the total number of entrances to both types of arms, and 3) the total number of entries into all arms of the maze—as a locomotor activity of the animals. If the mouse spends more time in the open arms than in the closed arms, this indicates an anxiolytic effect of the compounds tested. Exposed arms pose a risk of falling and therefore act as a mild stressor. Anxious mice are more likely to switch between open and enclosed arms and spend more time in enclosed arms than less anxious mice.^[ [11], [17], [44], [45] ^]

[2] = system: mice; assay: Forced swim test (FST, Porsolt's test)
Protocol: (§1) The tests were performed on male white mice of the Albino Swiss strain, whose weight was between 24 and 30 g in Experimental Medicine Center, Medical University of Lublin, Poland. The animals were housed (four/five per cage). Before conducting the experimental tests, the animals were subjected to an adaptation that lasted seven days. This consisted of keeping them in a room with relatively constant conditions: a temperature of 22 ± 1 °C, a humidity of 55 ± 5% and lighting that mimicked the natural day and night rhythm (12 h/12 h). Constant access to food and water was provided. Standard feed—LSM Motycz pelleted feed—and tap water were used. Mice were randomly allocated to study groups. Each group was represented by 8–10 animals, depending on the research schedule. The experiments were performed according to the procedures set out in the regulations for animal experiments: National Institute of Health Guidelines for the Care and Use of Laboratory Animals (8th edition) and to the European Community Council Directive for the Care and Use of Laboratory Animals of 22 September 2010 (2010/63/EU). The study was approved by the Local Ethical Committee in Lublin (number of ethical approvals: 27/2023). Tested compounds: FG‐1, FG‐4, FG‐5, FG‐6, FG‐7, FG‐8, and FG‐18 were finely ground in mortars with the addition of the emulsifier Tween‐80. A suspension was obtained, which was then diluted with aqueous solution of 0.5% methylcellulose (tylose). The mixture was then administered intraperitoneally (i.p.) to the animals 60 min before the start of the experiments. Animals in the control groups received a 0.5% tylose solution. All substances were administered via the same route of administration in appropriate dose and volume of 0.1 mL per 10 g of animal body weight. Prior to the administration of the drug, the animals were weighed, during the interval between tests, they were provided with food, water, and constant living conditions.
The study was carried out using the test proposed by R. Porsolt.^[ [46] ^] The method is based on the observation of an animal forced to swim in a confined space from which there is no escape. After an initial period of vigorous attempts to get out, the animal finally gives up on escaping. The test consists of immersing the mouse individually in a cylinder (diameter 10 cm, height 25 cm) filled with water (at a temperature of 23–25 °C) to a height of 10 cm for 6 min. In this test, two parameters were measured: immobility time in seconds (s), understood as the state in which the mouse makes only those movements that are necessary to keep the head above water, and the latency to the first immobility (s). Measurements were taken during the last 4 min of the experiment, starting from the 2nd to the 6th minute. At the end of each session, the animals were removed from the cylinders, dried with a towel, and placed near a heater until completely dry. Antidepressants typically show increased latency and decreased immobility in this test.

[3] = system: mice; assay: MK‐801‐induced hyperactivity test; settings: 30 mg/kg i.p. 60 min before test, MK‐801 0.3 mg kg^−1 s.c., 20 min observation
Protocol: as §1, with “conditions. […]” for “conditions.”

[4] = 30 mg kg^−1 i.p. 60 min before test
[5] = 15 mg kg^−1 i.p. 60 min before test
[6] = 7.5 mg kg^−1 i.p. 60 min before test

Structure (SMILES) | FST, total duration of immobility [2, 5] | FST, latency to first immobility [2, 4] | FST, total duration of immobility [2, 4] | MK‐801‐induced hyperactivity [3] | also measured
O=C(NCCCN1CCN(c2ccccc2C2=NCCS2)CC1)c1ccccn1 [FG‐1, N‐(3‐(4‐(2‐(4,5‐dihydrothiazol‐2‐yl) phenyl) piperazin‐1‐yl) propyl) picolinamide] | significant decrease in immobility | significant increase in latency to first immobility | significant decrease in immobility | significant decrease in MK‐801‐induced hyperactivity | EPM, percentage of the open arm entries [1, 4]: increase in the percentage of open arm entries; EPM, percentage of time spent in open arms [1, 4]: significant increase in time spent in open arms
O=C(NCCCN1CCN(c2ccccc2C2=NCCS2)CC1)c1ccncc1 [FG‐4, N‐(3‐(4‐(2‐(4,5‐dihydrothiazol‐2‐yl) phenyl) piperazin‐1‐yl) propyl) isonicotinamide] |  |  |  | significant decrease in MK‐801‐induced hyperactivity | 
O=C(NCCCN1CCN(c2cccc(C3=NCCS3)c2)CC1)c1ccncc1 [FG‐5, N‐(3‐(4‐(3‐(4,5‐dihydrothiazol‐2‐yl) phenyl) piperazin‐1‐yl) propyl) isonicotinamide] | significant decrease in immobility | significant increase in latency to first immobility | significant decrease in immobility |  | 
O=C(NCCCN1CCN(c2ccc(C3=NCCS3)cc2)CC1)c1ccncc1 [FG‐6, N‐(3‐(4‐(4‐(4,5‐dihydrothiazol‐2‐yl) phenyl) piperazin‐1‐yl) propyl) isonicotinamide] | significant decrease in immobility |  |  | significant decrease in MK‐801‐induced hyperactivity | EPM, percentage of the open arm entries [1, 6]: increase in the percentage of open arm entries; EPM, percentage of the open arm entries [1, 5]: increase in the percentage of open arm entries; EPM, percentage of time spent in open arms [1, 5]: significant increase in time spent in open arms; FST, latency to first immobility [2, 6]: significant increase in latency to first immobility; FST, total duration of immobility [2, 6]: significant decrease in immobility; FST, latency to first immobility [2, 5]: significant increase in latency to first immobility
O=C1C2C3C=CC(C3)C2C(=O)N1OCCCN1CCN(c2ccccc2C2=NCCS2)CC1 (centres unmarked) [FG‐7, 2‐(3‐(4‐(2‐(4,5‐dihydrothiazol‐2‐yl) phenyl) piperazin‐1‐yl) propoxy)‐3a,4,7,7a‐tetrahydro‐1 H‐4,7‐methanoisoindole‐1,3(2 H)‐dione] |  |  |  |  | EPM, percentage of time spent in open arms [1, 5]: significant increase in time spent in open arms; EPM, percentage of the open arm entries [1, 4]: increase in the percentage of open arm entries
O=C1C2C3C=CC(C3)C2C(=O)N1OCCCN1CCN(c2cccc(C3=NCCS3)c2)CC1 (centres unmarked) [FG‐8, 2‐(3‐(4‐(3‐(4,5‐dihydrothiazol‐2‐yl) phenyl) piperazin‐1‐yl) propoxy)‐3a,4,7,7a‐tetrahydro‐1H‐4,7‐methanoisoindole‐1,3(2H)‐dione] |  | significant increase in latency to first immobility | significant decrease in immobility |  | 
O=C(NCCCN1CCN(c2ccc(C3=NCCS3)cc2)CC1)C1CC2C=CC1C2 (stereo not drawn) [FG‐18, Endo‐ N‐(3‐(4‐(4‐(4,5‐dihydrothiazol‐2‐yl)phenyl)piperazin‐1‐yl)propyl) bicyclo[2.2.1]hept‐5‐ene‐2‐carboxamide] |  |  |  |  | EPM, percentage of time spent in open arms [1, 4]: significant increase in time spent in open arms

Reference: article PMC12321279, “Novel 4,5‐Dihydrothiazole‐Phenylpiperazine Derivatives: Synthesis, Docking Studies and Pharmacological Evaluation as Serotonergic Agents” (Chemmedchem, 2025)
